Where a name gives a salt, the structure may show the parent alone.
System: serum protein
Conditions: pH 1.0, 30 minutes
Procedure: Contents of the tubes are set out in TABLE II below:
The four tubes were incubated at room temperature for 30 minutes. At the end of the incubation, 4.0 ml of sodium barbital buffer (0.075 M, pH 8.6) was added and mixed with the contents of each tube. The radioactivity of each tube was measured with a gammacounter.
Each of the tubes was then transferred to an Amicon ultrafiltration cone with a centrifuge tube attachment. The tubes were centrifuged for 45 minutes at 2,200 × g at room temperature. The entire ultrafiltrate was collected and the radioactivity counted.
a = radioactivity before ultrafiltration,
b = the radioactivity in the ultrafiltrate

Compound	destruction of thyroxine binding sites of the serum proteins
Cl [HCl, Hydrochloric acid]	only partially destroy
pepsin	completely destroyed

From patent US3962039A, “Analytical procedure for thyroid hormones” (Center for Laboratory Medicine, priority 1975, dated 1976)
